Experimental findings from paper PMC11724075, “Small-molecule-induced ERBB4 activation to treat heart failure” (Nature Communications, 2025) are described below.

In one experiment the target is T1, ERBB4/ERBB4 (Homo sapiens, UniProt Q15303).
T1 construct: host or cells: U2OS (osteosarcoma cells), PathHunter engineered line
The experiment in a line: PathHunter U2OS ERBB4/ERBB4 dimerization assay, 96-well dose-response. It counts as cell-based. The note with it: for ERBB4/ERBB4 dimerization signal: relative to signal with 0.1 µM NRG1, single biological replicates. Here is the method:
PathHunter U2OS ERBB4/ERBB4 (osteosarcoma cells; Eurofins, 93-0961C3), U2OS ERBB2/ERBB4 (osteosarcoma cells; Eurofins, 493-0960C3), ERBB2/ERBB3 (osteosarcoma cells; Eurofins, 93-1042C3) and ERBB1/ERBB1 (osteosarcoma cells; Eurofins, 93-0989C3) dimerization cell lines were cultured according to the manufacturer’s instructions. Briefly, cells were cultured in Cell Culture Reagent 103 (Eurofins, 92-3103 G) supplemented with 250 µg/mL Hygromycin B (Eurofins, 92-0029) and 500 µg/mL G418 (Eurofins, 92-0030), and were maintained at 37 °C in humidified atmosphere of 5% CO2. HCFs (Innoprot, P10454) were cultured in fibroblast medium (Innoprot, P60108) supplemented with 10% (v/v) fetal bovine serum (FBS, Innoprot), 10% (v/v) fibroblast growth supplement (Innoprot), and 1% (v/v) penicillin/streptomycin solution (Innoprot). iAMs[33] (kindly provided by LUMC) were cultured in Advanced DMEM F-12 (Thermo Fisher Scientific, 12634028) supplemented with 2% (v/v) heat-inactivated FBS (Thermo Fisher Scientific, 10270106), 1% (v/v) penicillin/streptomycin (10,000 units/mL and 10 mg/mL respectively, Thermo Fisher Scientific, 15140122), 1× GlutaMAX (Thermo Fisher Scientific, 35050061), and 100 ng/mL doxycycline (Tocris, 4090) for proliferation. To induce differentiation, iAMs were transferred to medium without doxycycline.
U2OS ERBB4/ERBB4 dimerization cells were seeded at a density of 5 × 10^4 cells/well in 100 µL Cell Plating 0 Reagent, in white 96-well plates (PerkinElmer, 6005680) and incubated for 24 h at 37 °C, 5% CO2. […] Next, 110 µL PathHunter Flash Detection Reagent was added to each well and incubated at RT for 1 h after which the luminescence signal was measured using the Luminoskan Ascent (Thermo Fisher Scientific). […] The same experimental set-up was used for the U2OS ERBB2/ERBB4, U2OS ERBB2/ERBB3 and U2OS ERBB1/ERBB1 dimerization cell lines.
Category Parameter Description
Assay Type of assay PathHunter Dimerization assays provide a robust, highly sensitive and easy-to-use cell-based functional assay to study various protein activities in a cell. The assay s use
Enzyme Fragment Complementation technology, where the b-galactosidase (b-gal) enzyme is split into two fragments, ProLink and Enzyme Acceptor. Independently these fragments have no b-gal activity. However, when forced to complement through protein-protein interactions, they form an active b-gal enzyme. The PathHunter Dimerization assay detects ligand induced dimerization of two subunits of a receptor-dimer pair. The cells have been engineered to co-express one receptor subunit (ERBB4) fused to Enzyme
Donor, and a second dimer partner (ERBB4) fused to Enzyme Acceptor. Binding of an agonist to one receptor subunit induces it to interact with its dimer partner, forcing complementation of the two enzyme […]
functional enzyme that hydrolyzes a substrate to generate a chemiluminescent signal.
Target ErbB4 receptor (RTK receptor)
Primary measurement Detection of chemiluminescent signal, induced by small-molecule ErbB4 agonists
Key reagents PathHunter Dimerization ErbB4/ErbB4 Cell
Line (93-0961C3) - PathHunter Flash
Detection Kit (03 -0247) - AssayComplete Cell
AssayComplete Cell Detachment Reagent
(92-0009) - AssayComplete Thawing Reagent
T3 (92-4103TR) - AssayComplete Freezing
Assay protocol https://www.discoverx.com/catalog/pathhun

In a further experiment the test system is HCFs. The experiment in a line: RT-qPCR on signaling pathway genes in HCFs. It counts as cell-based, human. The following applies: single replicates. Here is the method: RNA was extracted using Nucleospin RNA XS (Macherey-Nagel, 740902.50) according to the manufacturer’s instructions. For cDNA synthesis, total RNA was added to a mixture containing buffer with random hexamers and reverse transcriptase enzyme (TaqMan reverse transcription reagents, Applied biosystems, N8080234) after which samples were incubated for 10 min at 25 °C, 30 min at 48 °C, and 5 min at 95 °C. RT-qPCR was performed on QuantStudio 3 Real-time PCR system (Applied Biosystems) using Taqman Universal PCR Master Mix (Applied Biosystems, 4304437) and Taqman primers according to the manufacturer’s instructions. Settings were as follows: […] followed by 10 min at 95 °C, 40 cycles (45 cycles for ERBB4) of denaturation at 95 °C for 15 s, and 1 min at 60 °C. All reactions were run in duplicate, and all data were normalized against housekeeping genes glyceraldehyde-3-phosphate dehydrogenase (GAPDH), beta-actin (ACTB), or phosphoglycerate kinase 1 (PGK1). Expression levels were calculated using the comparative cycle method and expressed as fold change (FC) to appropriate controls. The following TaqMan primers were used (Thermo Fisher Scientific): GAPDH (Hs02758991_g1, Mm99999915_g1 and Rn01775763_g1), PGK1 (Hs99999906_m1), ID2 (Hs04187239_m1), BMPR1B (Hs01010965_m1), CACNA2D4 (Hs00297782_m1), DUSP2 (Hs00358879_m1), NR4A1 (Hs00374226_m1), SGK1 (Hs00178612_m1), COL1A1 (Mm00801666_g1), COL3A1 (Hs00943809_m1 and Mm00802305_g1), ERBB4 (Hs00955525_m1 and Rn00572447_m1), ACTB (Mm02619580_g1) and ANP (Mm01255747_g1).

Where “and” joins values, the source holds several entries; their conditions need not be identical. Identical values can stand only once.

T1 sequence (Q15303 26-1308): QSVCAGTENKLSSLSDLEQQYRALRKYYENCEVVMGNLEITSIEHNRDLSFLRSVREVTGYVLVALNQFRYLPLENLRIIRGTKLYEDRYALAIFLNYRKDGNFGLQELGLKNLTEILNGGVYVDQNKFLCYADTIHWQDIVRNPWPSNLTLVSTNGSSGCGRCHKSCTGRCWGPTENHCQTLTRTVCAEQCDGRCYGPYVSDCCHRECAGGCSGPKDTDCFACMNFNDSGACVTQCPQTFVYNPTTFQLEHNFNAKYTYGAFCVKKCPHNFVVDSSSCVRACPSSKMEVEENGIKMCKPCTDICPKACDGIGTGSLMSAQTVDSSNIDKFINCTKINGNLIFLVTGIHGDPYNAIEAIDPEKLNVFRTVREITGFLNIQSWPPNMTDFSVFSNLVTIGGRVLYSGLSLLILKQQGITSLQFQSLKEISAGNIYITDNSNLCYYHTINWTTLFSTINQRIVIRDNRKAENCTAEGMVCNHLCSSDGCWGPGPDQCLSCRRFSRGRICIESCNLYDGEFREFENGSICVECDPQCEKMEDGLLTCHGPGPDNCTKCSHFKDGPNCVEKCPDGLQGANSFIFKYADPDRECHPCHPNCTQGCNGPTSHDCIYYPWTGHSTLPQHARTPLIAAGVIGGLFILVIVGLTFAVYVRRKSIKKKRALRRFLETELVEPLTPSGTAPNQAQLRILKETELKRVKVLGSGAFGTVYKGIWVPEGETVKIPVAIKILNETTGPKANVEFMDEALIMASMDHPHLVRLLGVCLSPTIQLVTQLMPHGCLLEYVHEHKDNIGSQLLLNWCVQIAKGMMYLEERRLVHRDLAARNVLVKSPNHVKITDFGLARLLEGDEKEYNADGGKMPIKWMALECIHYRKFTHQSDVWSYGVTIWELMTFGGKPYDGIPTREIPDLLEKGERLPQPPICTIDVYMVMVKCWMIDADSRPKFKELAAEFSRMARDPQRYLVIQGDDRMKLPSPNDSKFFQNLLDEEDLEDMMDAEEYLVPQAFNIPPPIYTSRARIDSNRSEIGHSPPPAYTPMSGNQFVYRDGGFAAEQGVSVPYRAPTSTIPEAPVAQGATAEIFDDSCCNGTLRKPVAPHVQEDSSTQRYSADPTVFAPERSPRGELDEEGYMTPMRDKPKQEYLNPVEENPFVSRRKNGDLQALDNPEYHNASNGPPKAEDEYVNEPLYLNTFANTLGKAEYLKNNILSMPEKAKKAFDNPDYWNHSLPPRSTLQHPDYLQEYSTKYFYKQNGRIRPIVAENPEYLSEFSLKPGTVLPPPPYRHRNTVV
T1 sequence (Q15303 26-1308): as above

Take `O=C(NC1CC1)C(Sc1nc2ccccc2c(=O)n1C1CCCC1)c1ccccc1` (stereo not shown) [EF-1]: the ERBB4/ERBB4 dimerization signal at ERBB4/ERBB4 (3.125e-8 M) was 0; at ERBB4/ERBB4 (6.25e-8 M), -1.6 and -0.07 and 2.169 and 1.573; at ERBB4/ERBB4 (1.25e-7 M), -0.55 and -0.15 and 2.599 and 0.9551; on ERBB4/ERBB4 (2.5e-7 M), -1.94 and 0.74 and 2.315 and -0.7582; at ERBB4/ERBB4 (5e-7 M) it was -0.55 and 0.26 and 2.323 and -0.4275; at ERBB4/ERBB4 (1e-6 M), -2 and 0.47 and 4.362 and -0.05827. For the same molecule, the ERBB4/ERBB4 dimerization signal on ERBB4/ERBB4 (2e-6 M) was 1.2 and 2.97 and 7.682 and 3.162; on ERBB4/ERBB4 (4e-6 M), 7.41 and 5.76 and 13.8923 and 7.932; at ERBB4/ERBB4 (8e-6 M), 16.72 and 8.19 and 23.4633 and 9.465; on ERBB4/ERBB4 (1.6e-5 M), 24.8 and 17.62 and 27.6207 and 19.8392; at ERBB4/ERBB4 (3.2e-5 M), 30.57 and 22.84 and 33.2287 and 25.0905. Besides, the “Emax, maximum response relative to NRG1” value at ERBB4/ERBB4 (% of the effect of NRG1) is 27.9 ± 4.8%. Also, in the experiment on HCFs, the “BMPR1B mRNA, normalized FC compared to vehicle” value was 0.7674 and 0.7715 and 0.7478 and 0.6131. Besides, the “CACNA2D4 mRNA, normalized FC compared to vehicle” value with HCFs was 0.6726 and 0.5139 and 0.5641 and 0.6199. The “DUSP2 mRNA, normalized FC compared to vehicle” value in the experiment on HCFs is 0.652 and 0.6672 and 0.8266 and 0.7945. In addition, in the experiment with HCFs, the “ID2 mRNA, normalized FC compared to vehicle” value was 0.7995 and 0.6935 and 0.711 and 0.7833. Besides, in the experiment on HCFs, the “NR4A1 mRNA, normalized FC compared to vehicle” value was 0.6281 and 0.8412 and 0.7864 and 0.7806. The “SGK1 mRNA, normalized FC compared to vehicle” value with HCFs is 0.5165 and 0.6795 and 0.6992 and 0.5618.
On to `Cc1sc2nc(SC(C)C(=O)NCc3ccc4c(c3)OCO4)n(-c3ccccc3)c(=O)c2c1C` (stereo not shown) [NA-1], for which the “induction of ERBB4 dimerization (in words)” value on ERBB4/ERBB4 was “did not activate ERBB4”. For the same molecule, the ERBB4/ERBB4 dimerization signal at ERBB4/ERBB4 (3.125e-8 M) was 0; on ERBB4/ERBB4 (1.25e-7 M) it was -1.9 and -5.83; on ERBB4/ERBB4 (5e-7 M), -1.92 and -5.07; at ERBB4/ERBB4 (2e-6 M) it was -1.85 and -3.89; at ERBB4/ERBB4 (8e-6 M), -1.52 and -5.16; at ERBB4/ERBB4 (3.2e-5 M) it was -1.83 and -4.37.
On to neuregulin-1 [NRG1], for which, in the experiment on HCFs, the “BMPR1B mRNA, normalized FC compared to vehicle” value was 0.8467 and 0.8788 and 0.6722 and 0.547; the “CACNA2D4 mRNA, normalized FC compared to vehicle” value is 0.587 and 0.7244 and 0.5309 and 0.2575; the “DUSP2 mRNA, normalized FC compared to vehicle” value was 0.9928 and 0.6481 and 0.6778 and 0.7386; the “ID2 mRNA, normalized FC compared to vehicle” value was 0.8573 and 0.8679 and 0.8306 and 0.7992. Besides, in the experiment with HCFs, the “NR4A1 mRNA, normalized FC compared to vehicle” value was 0.5297 and 0.9275 and 0.7063 and 0.8111; the “SGK1 mRNA, normalized FC compared to vehicle” value was 0.7797 and 0.9219 and 0.8239 and 0.6521.
